Reference: PubChem BioAssay (NCI)
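Interpolation was linear, between the two tested concentrations surrounding the appropriate level; five concentrations were tested over 48 hours in 96-well plates. The concentration for full growth arrest is given as TGI.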

What was measured:
Assay in all cases: growth of human tumour cells (NCI), 48 h
A498 renal = system: A498 renal
ACHN renal = system: ACHN renal
HCT-15 colon = system: HCT-15 colon
HOP-62 NSCLC = system: HOP-62 NSCLC
IGROV1 ovarian = system: IGROV1 ovarian
LOX IMVI melanoma = system: LOX IMVI melanoma
MDA-MB-231 breast = system: MDA-MB-231 breast
MDA-N = system: MDA-N
NCI-H226 lung = system: NCI-H226 lung
OVCAR-3 ovarian = system: OVCAR-3 ovarian
SK-MEL-2 melanoma = system: SK-MEL-2 melanoma
SK-MEL-28 melanoma = system: SK-MEL-28 melanoma
SK-OV-3 ovarian = system: SK-OV-3 ovarian
SNB-19 CNS = system: SNB-19 CNS

Row | Compound | TGI (A498 renal) [µM] | TGI (ACHN renal) [µM] | TGI (HCT-15 colon) [µM] | TGI (HOP-62 NSCLC) [µM] | TGI (IGROV1 ovarian) [µM] | TGI (LOX IMVI melanoma) [µM] | TGI (MDA-MB-231 breast) [µM] | TGI (MDA-N) [µM] | TGI (NCI-H226 lung) [µM] | TGI (OVCAR-3 ovarian) [µM] | TGI (SK-MEL-2 melanoma) [µM] | TGI (SK-MEL-28 melanoma) [µM] | TGI (SK-OV-3 ovarian) [µM] | TGI (SNB-19 CNS) [µM]
1 | O=C1CSC(c2ccccc2[N+](=O)[O-])N1c1ccc(-n2c(-c3ccccc3)nc3ccccc3c2=O)cc1 (stereo not given) | > 100 | > 100 | > 100 | 54.1 | > 100 | > 100 | > 100 | > 100 | 89.2 | > 100 | > 100 | > 100 | 28.3 | > 100
2 | COC(=O)c1c2c(cc3c1CC1(C3)Cc3ccc4c(c3C1=O)CCC4)CCC2 (stereo not given) | > 49.7 | > 31.6 | > 100 | > 30 | > 100 | > 58.1 | 8.88 | 2.81 | > 30 | > 31.5 | 27 | > 100 | > 77.4 | 62.1
3 | O=C(O)c1nc2cc(C(F)(F)F)ccc2[nH]c1=O | > 100 | > 100 | > 100 | > 100 | > 100 | > 100 | > 100 | > 100 | > 100 | > 100 | > 100 | > 100 | > 100 | > 100
4 | N#Cc1c(-c2ccccc2)c(C#N)c(=S)n(C2OCC(O)C(O)C2O)c1N (stereo not given) | > 100 | > 100 | > 100 | > 100 | > 100 | > 100 | > 100 | > 100 | > 100 | > 100 | > 100 | > 100 | > 100 | > 100
5 | COc1ccc2[nH]cc(CN3CCC(CO)(c4ccccc4)CC3)c2c1 | > 100 | 47.8 | > 100 | 58.8 | > 100 | 37 | 80.9 | 38.3 | > 100 | > 100 | 55.3 | 33.3 | > 100 | > 100
6 | CC(=O)[C@]1(C)[C@H](C)O[C@](C)(CO)[C@H]1O[Si](C)(C)c1ccccc1 | > 100 | > 100 | 84.6 | > 100 | 41.4 | 44.4 | > 100 | > 100 | > 100 | > 100 | > 100 | > 100 | > 100 | > 100
7 | NN/C(=N\S(=O)(=O)c1cccc2nsnc12)Nc1ccc(Cl)cc1 | > 100 | > 100 | > 100 | > 100 | > 100 | > 100 | > 100 | > 100 | > 100 | > 100 | > 100 | > 100 | > 100 | > 100
8 | O=c1[nH]cnc2c1ncn2C1SC(CO)C(O)C1O (stereo not given) | > 100 | > 100 | > 100 | > 100 | > 100 | > 100 | > 100 | > 100 | > 100 | > 100 | > 100 | > 100 | > 100 | > 100
9 | Cc1ccc(C(=O)c2[nH]c(Nc3ccc(Cl)cc3)c(C(=S)Nc3ccccc3)c2N)cc1 | 27.9 | 10.7 | 28.5 | 15.3 | 15 | 14.3 | 24.2 | 20.6 | 43.4 | 56.8 | 31.7 | 14.5 | 27.3 | 21.9
10 | CN1CC(S(=O)(=O)c2ccccc2)CC(S(=O)(=O)c2ccccc2)C1c1ccccc1 (stereo not given) | 31.7 | 26.9 | 32.2 | 54.6 | > 100 | 29.7 | 31.8 | 28.8 | 65.5 | 27.8 | 20 | 36.7 | > 100 | 59.6
